Publication PMC5218480 (PLoS ONE, 2017)

Test system: MV-4-11 cells
Assay: Gene expression microarray analysis (Affymetrix PrimeView) and GSEA
Assay type: cell-based, human
Parameters: RFU PODN (11730768_x_at) / Fold change /veh PODN (11730768_x_at) / RFU LINC00158 (11744669_a_at) / Fold change /veh LINC00158 (11744669_a_at) / RFU DUSP10 (11751237_a_at) / Fold change /veh DUSP10 (11751237_a_at) / RFU ID3 (11757404_x_at) / Fold change /veh ID3 (11757404_x_at) / RFU PLEKHG5 (11737974_s_at) / Fold change /veh PLEKHG5 (11737974_s_at) / RFU LRRC4B (11730491_at) / Fold change /veh LRRC4B (11730491_at) / RFU GIMAP4 (11747438_a_at) / Fold change /veh GIMAP4 (11747438_a_at) / RFU KRT8 (11758183_x_at) / Fold change /veh KRT8 (11758183_x_at) / RFU CNN1 (11734310_a_at) / Fold change /veh CNN1 (11734310_a_at) / RFU VPS37D (11726825_at) / Fold change /veh VPS37D (11726825_at) / RFU C10orf10 (11716522_x_at) / Fold change /veh C10orf10 (11716522_x_at) / RFU KIR2DL2 /// KIR2DL4 /// KIR2DL5A /// KIR2DL5B /// KIR2DS1 /// KIR2DS2 /// KIR2DS3 /// KIR2DS4 /// KIR3DL3 /// KIR3DL3 /// KIR3DS1 (11738374_at) / Fold change /veh KIR2DL2 /// KIR2DL4 /// KIR2DL5A /// KIR2DL5B /// KIR2DS1 /// KIR2DS2 /// KIR2DS3 /// KIR2DS4 /// KIR3DL3 /// KIR3DL3 /// KIR3DS1 (11738374_at) / RFU C1QL1 (11718748_at) / Fold change /veh C1QL1 (11718748_at) / RFU TMPRSS4 (11747572_a_at) / Fold change /veh TMPRSS4 (11747572_a_at) / RFU HAMP (11756126_x_at) / Fold change /veh HAMP (11756126_x_at) / RFU RNFT2 (11725882_a_at) / Fold change /veh RNFT2 (11725882_a_at) / RFU NR4A2 (11747474_a_at) / Fold change /veh NR4A2 (11747474_a_at) / RFU ABCC12 (11746883_a_at) / Fold change /veh ABCC12 (11746883_a_at) / RFU TMEM136 (11760407_x_at) / Fold change /veh TMEM136 (11760407_x_at) / RFU CLDN22 /// WWC2 (11732394_at) / Fold change /veh CLDN22 /// WWC2 (11732394_at) / RFU HLA-DPB1 (11760878_x_at) / Fold change /veh HLA-DPB1 (11760878_x_at) / RFU SPINT1 (11716480_a_at) / Fold change /veh SPINT1 (11716480_a_at) / RFU GAP43 (11754022_s_at) / Fold change /veh GAP43 (11754022_s_at) / RFU A4GNT (11735810_at) / Fold change /veh A4GNT (11735810_at) / RFU PRB3 (11715151_x_at) / Fold change /veh PRB3 (11715151_x_at) / RFU TUBB4B (11761932_at) / Fold change /veh TUBB4B (11761932_at) / RFU CAPN14 (11732068_a_at) / Fold change /veh CAPN14 (11732068_a_at) / RFU TMCC2 (11721928_a_at) / Fold change /veh TMCC2 (11721928_a_at) / RFU IRGQ (11745062_a_at) / Fold change /veh IRGQ (11745062_a_at) / RFU FAM174B (11720279_a_at) / Fold change /veh FAM174B (11720279_a_at) / RFU TMPRSS4 (11748680_a_at) / Fold change /veh TMPRSS4 (11748680_a_at) / RFU FAM212B (11763350_a_at) / Fold change /veh FAM212B (11763350_a_at) / RFU PLEKHG5 (11743358_a_at) / Fold change /veh PLEKHG5 (11743358_a_at) / RFU ZSCAN30 (11745921_a_at) / Fold change /veh ZSCAN30 (11745921_a_at) / RFU CMKLR1 (11741424_a_at) / Fold change /veh CMKLR1 (11741424_a_at) / RFU LOC101060620 /// MAPK8IP1 (11723275_at) / Fold change /veh LOC101060620 /// MAPK8IP1 (11723275_at) / RFU SPTSSB (11747773_x_at) / Fold change /veh SPTSSB (11747773_x_at) / RFU PRSS12 (11739890_at) / Fold change /veh PRSS12 (11739890_at) / RFU BIN1 (11741810_x_at) / Fold change /veh BIN1 (11741810_x_at) / RFU WNT11 (11732464_a_at) / Fold change /veh WNT11 (11732464_a_at) / RFU C10orf10 (11716521_a_at) / Fold change /veh C10orf10 (11716521_a_at) / RFU C5orf56 (11738089_at) / Fold change /veh C5orf56 (11738089_at) / RFU CYB561 (11721691_x_at) / Fold change /veh CYB561 (11721691_x_at) / RFU ANKRD19P (11752326_a_at) / Fold change /veh ANKRD19P (11752326_a_at) / RFU OR2T12 /// OR2T33 /// OR2T8 (11738714_s_at) / Fold change /veh OR2T12 /// OR2T33 /// OR2T8 (11738714_s_at) / RFU VCAN (11748164_a_at) / Fold change /veh VCAN (11748164_a_at) / RFU JSRP1 (11732532_at) / Fold change /veh JSRP1 (11732532_at) / RFU KRTAP10-11 (11738290_x_at) / Fold change /veh KRTAP10-11 (11738290_x_at) / RFU MYO3A (11730013_a_at) / Fold change /veh MYO3A (11730013_a_at) / RFU EBF3 (11725865_a_at) / Fold change /veh EBF3 (11725865_a_at) / RFU CAMK2N1 (11719241_x_at) / Fold change /veh CAMK2N1 (11719241_x_at) / RFU C5orf56 (11738088_a_at) / Fold change /veh C5orf56 (11738088_a_at) / RFU OLFML3 (11715873_a_at) / Fold change /veh OLFML3 (11715873_a_at) / RFU LOC100653217 /// NTM (11731650_a_at) / Fold change /veh LOC100653217 /// NTM (11731650_a_at) / RFU MAPK11 (11762145_a_at) / Fold change /veh MAPK11 (11762145_a_at) / RFU FIZ1 (11724087_x_at) / Fold change /veh FIZ1 (11724087_x_at) / RFU OASL (11726364_x_at) / Fold change /veh OASL (11726364_x_at) / RFU SOX15 (11748057_x_at) / Fold change /veh SOX15 (11748057_x_at) / RFU CD79A (11719716_a_at) / Fold change /veh CD79A (11719716_a_at) / RFU HIST1H1D (11736915_at) / Fold change /veh HIST1H1D (11736915_at) / RFU CASKIN2 (11723855_a_at) / Fold change /veh CASKIN2 (11723855_a_at) / RFU LOC730098 (11760151_x_at) / Fold change /veh LOC730098 (11760151_x_at) / RFU OR4N2 (11742367_at) / Fold change /veh OR4N2 (11742367_at) / RFU PRRT2 (11749266_a_at) / Fold change /veh PRRT2 (11749266_a_at) / RFU SNX32 (11753110_a_at) / Fold change /veh SNX32 (11753110_a_at) / RFU CDHR5 (11726645_a_at) / Fold change /veh CDHR5 (11726645_a_at) / RFU RCAN1 (11760418_a_at) / Fold change /veh RCAN1 (11760418_a_at) / RFU FAM167A (11723789_a_at) / Fold change /veh FAM167A (11723789_a_at) / RFU FAM26E (11764081_at) / Fold change /veh FAM26E (11764081_at) / RFU ISYNA1 (11749810_s_at) / Fold change /veh ISYNA1 (11749810_s_at) / RFU ACY1 (11761880_at) / Fold change /veh ACY1 (11761880_at) / RFU 11764098_at / Fold change /veh 11764098_at / RFU SAMD14 (11745864_x_at) / Fold change /veh SAMD14 (11745864_x_at) / RFU NPB (11741838_a_at) / Fold change /veh NPB (11741838_a_at) / RFU TMPRSS6 (11731388_a_at) / Fold change /veh TMPRSS6 (11731388_a_at) / RFU KRTAP10-2 (11738614_at) / Fold change /veh KRTAP10-2 (11738614_at) / RFU ARHGAP8 /// PRR5-ARHGAP8 (11727945_x_at) / Fold change /veh ARHGAP8 /// PRR5-ARHGAP8 (11727945_x_at) / RFU KRTAP5-7 /// NADSYN1 (11734609_at) / Fold change /veh KRTAP5-7 /// NADSYN1 (11734609_at) / RFU RASL12 (11751679_a_at) / Fold change /veh RASL12 (11751679_a_at) / RFU CDKN2B (11736163_a_at) / Fold change /veh CDKN2B (11736163_a_at) / RFU PRF1 (11729649_at) / Fold change /veh PRF1 (11729649_at) / RFU, ZNF638 /// ZNF638-IT1 / Fold change vs veh, ZNF638 /// ZNF638-IT1 / RFU, PANK3 / Fold change vs veh, PANK3 / RFU, SH3YL1 / Fold change vs veh, SH3YL1 / RFU, ZEB2 / Fold change vs veh, ZEB2 / RFU, NRIP1 / Fold change vs veh, NRIP1 / RFU, PTTG1IP / Fold change vs veh, PTTG1IP / RFU, CAPN2 / Fold change vs veh, CAPN2 / RFU, MED14 / Fold change vs veh, MED14 / RFU, SNORA58 / Fold change vs veh, SNORA58 / RFU, C1orf63 / Fold change vs veh, C1orf63 / RFU, LRRFIP1 / Fold change vs veh, LRRFIP1 / RFU, NDUFAF7 / Fold change vs veh, NDUFAF7 / RFU, SLC12A2 / Fold change vs veh, SLC12A2 / RFU, IBTK / Fold change vs veh, IBTK / RFU, ESF1 / Fold change vs veh, ESF1 / Fold change vs veh, TMEM50B / RFU, TAOK1 / Fold change vs veh, TAOK1 / RFU, ACBD3 / Fold change vs veh, ACBD3 / RFU, TMA16 / Fold change vs veh, TMA16 / RFU, RWDD3 / Fold change vs veh, RWDD3 / RFU, BCAT1 / Fold change vs veh, BCAT1 / RFU, EDEM3 / Fold change vs veh, EDEM3 / RFU, TMEM33 / Fold change vs veh, TMEM33 / RFU, WDR75 / Fold change vs veh, WDR75 / RFU, AHCTF1 / Fold change vs veh, AHCTF1 / RFU, TFRC / Fold change vs veh, TFRC / RFU, ZDHHC17 / Fold change vs veh, ZDHHC17 / RFU, NOM1 / Fold change vs veh, NOM1 / RFU, ARL8B / Fold change vs veh, ARL8B / RFU, ZBTB11 / Fold change vs veh, ZBTB11 / RFU, TAMM41 / Fold change vs veh, TAMM41 / RFU, KIAA1704 /// LOC100996395 / Fold change vs veh, KIAA1704 /// LOC100996395 / RFU, ING1 / Fold change vs veh, ING1 / RFU, TRMT61B / Fold change vs veh, TRMT61B / RFU, FUBP3 / Fold change vs veh, FUBP3 / RFU, TP53 / Fold change vs veh, TP53 / RFU, TNKS2 / Fold change vs veh, TNKS2 / RFU, ZFP14 / Fold change vs veh, ZFP14 / RFU, ACTR2 / Fold change vs veh, ACTR2 / RFU, PPP3R1 / Fold change vs veh, PPP3R1 / RFU, PIK3R1 / Fold change vs veh, PIK3R1 / RFU, HNRNPA1 / Fold change vs veh, HNRNPA1 / RFU, RNF170 / Fold change vs veh, RNF170 / RFU, ZNF28 / Fold change vs veh, ZNF28 / RFU, RNGTT / Fold change vs veh, RNGTT / RFU, OGT / Fold change vs veh, OGT / RFU, BRD1 / Fold change vs veh, BRD1 / RFU, MARS / Fold change vs veh, MARS / RFU, ZNF655 / Fold change vs veh, ZNF655 / RFU, FAHD1 / Fold change vs veh, FAHD1 / RFU, BDP1 / Fold change vs veh, BDP1 / RFU, LRRCC1 / Fold change vs veh, LRRCC1 / RFU, ARID1A / Fold change vs veh, ARID1A / RFU, ZNF146 / Fold change vs veh, ZNF146 / RFU, ZNF330 / Fold change vs veh, ZNF330 / RFU, GPN3 / Fold change vs veh, GPN3 / RFU, C9orf123 / Fold change vs veh, C9orf123 / RFU, N4BP2L2 / Fold change vs veh, N4BP2L2 / RFU, ARFIP1 / Fold change vs veh, ARFIP1 / RFU, FAM179B / Fold change vs veh, FAM179B / RFU, BCL10 / Fold change vs veh, BCL10 / RFU, UHRF1BP1L / Fold change vs veh, UHRF1BP1L / RFU, BET1 / Fold change vs veh, BET1 / RFU, CNOT2 / Fold change vs veh, CNOT2 / RFU, ZNF268 / Fold change vs veh, ZNF268 / Fold change vs veh, ZNF507 / RFU, DGCR2 / Fold change vs veh, DGCR2 / RFU, WDSUB1 / Fold change vs veh, WDSUB1 / Fold change vs veh, HSP90B1 /// MIR3652 / RFU, ADSS / Fold change vs veh, ADSS / RFU, GK / Fold change vs veh, GK / RFU, ZNF148 / Fold change vs veh, ZNF148 / RFU, TAF9 / Fold change vs veh, TAF9 / RFU, SLC1A5 / Fold change vs veh, SLC1A5 / RFU, SLMO2 / Fold change vs veh, SLMO2 / RFU, ABCC4 / Fold change vs veh, ABCC4 / RFU, LOC101060439 /// RAP1B / Fold change vs veh, LOC101060439 /// RAP1B / RFU, RFX7 / Fold change vs veh, RFX7 / RFU, GTPBP10 / Fold change vs veh, GTPBP10 / RFU, CNEP1R1 / Fold change vs veh, CNEP1R1 / RFU, BIVM-ERCC5 /// ERCC5 / Fold change vs veh, BIVM-ERCC5 /// ERCC5 / RFU, ILF3 / Fold change vs veh, ILF3 / RFU 11762660_at / Fold change /veh 11762660_at / RFU VCAN (11757783_s_at) / Fold change /veh VCAN (11757783_s_at) / RFU DDX43 (11728927_at) / Fold change /veh DDX43 (11728927_at) / RFU KRT8 (11758188_x_at) / Fold change /veh KRT8 (11758188_x_at) / RFU NKD1 (11759106_at) / Fold change /veh NKD1 (11759106_at) / RFU SRD5A1 (11742802_a_at) / Fold change /veh SRD5A1 (11742802_a_at) / RFU TPSAB1 /// TPSB2 (11721975_s_at) / Fold change /veh TPSAB1 /// TPSB2 (11721975_s_at) / RFU GSTM3 (11746129_a_at) / Fold change /veh GSTM3 (11746129_a_at) / RFU IL23R (11737362_x_at) / Fold change /veh IL23R (11737362_x_at) / RFU TMEM51 (11727254_a_at) / Fold change /veh TMEM51 (11727254_a_at) / RFU PIWIL2 (11732686_x_at) / Fold change /veh PIWIL2 (11732686_x_at) / RFU ORM1 (11744905_x_at) / Fold change /veh ORM1 (11744905_x_at) / RFU CCDC152 (11743942_at) / Fold change /veh CCDC152 (11743942_at) / RFU ECM1 (11717891_a_at) / Fold change /veh ECM1 (11717891_a_at) / RFU IL23R (11748794_a_at) / Fold change /veh IL23R (11748794_a_at) / RFU TNFAIP8L3 (11732012_x_at) / Fold change /veh TNFAIP8L3 (11732012_x_at) / RFU MBOAT4 (11741988_at) / Fold change /veh MBOAT4 (11741988_at) / RFU 11764193_at / Fold change /veh 11764193_at / RFU TMEM53 (11763286_at) / Fold change /veh TMEM53 (11763286_at) / RFU MAGEB2 (11727129_at) / Fold change /veh MAGEB2 (11727129_at) / RFU TMEM200A (11744735_a_at) / Fold change /veh TMEM200A (11744735_a_at) / RFU CCDC152 (11751479_a_at) / Fold change /veh CCDC152 (11751479_a_at) / RFU FAM211A (11726209_a_at) / Fold change /veh FAM211A (11726209_a_at) / RFU RGS16 (11746705_a_at) / Fold change /veh RGS16 (11746705_a_at) / RFU VCAN (11755009_s_at) / Fold change /veh VCAN (11755009_s_at) / RFU RHOB (11743442_s_at) / Fold change /veh RHOB (11743442_s_at) / RFU RGS16 (11720943_a_at) / Fold change /veh RGS16 (11720943_a_at) / RFU RGS16 (11720944_at) / Fold change /veh RGS16 (11720944_at) / RFU, VPS4B / Fold change vs veh, VPS4B / RFU, CREB1 / Fold change vs veh, CREB1 / RFU, DNAJC13 / Fold change vs veh, DNAJC13 / RFU, GNAQ / Fold change vs veh, GNAQ / RFU, CDK5R1 / Fold change vs veh, CDK5R1 / RFU, ZRANB3 / Fold change vs veh, ZRANB3 / RFU, CUL4A / Fold change vs veh, CUL4A / RFU, CCNY / Fold change vs veh, CCNY / RFU, UFL1 / Fold change vs veh, UFL1 / RFU, COG3 / Fold change vs veh, COG3 / RFU, DIAPH2 / Fold change vs veh, DIAPH2 / RFU, SKA2 / Fold change vs veh, SKA2 / RFU, AFF3 / Fold change vs veh, AFF3 / RFU, LMF1 / Fold change vs veh, LMF1 / RFU, IPO11 / Fold change vs veh, IPO11 / RFU, DFFB / Fold change vs veh, DFFB / RFU, FOXP1 / Fold change vs veh, FOXP1 / RFU, CARD8 / Fold change vs veh, CARD8 / RFU, STRN3 / Fold change vs veh, STRN3 / RFU, ADK / Fold change vs veh, ADK / RFU, RASSF2 / Fold change vs veh, RASSF2 / RFU, WIPF1 / Fold change vs veh, WIPF1 / RFU, LARP1B / Fold change vs veh, LARP1B / RFU, RASA1 / Fold change vs veh, RASA1 / RFU, RB1 / Fold change vs veh, RB1 / RFU, PPFIA1 / Fold change vs veh, PPFIA1 / RFU, MAT2A / Fold change vs veh, MAT2A / RFU, CCT5 / Fold change vs veh, CCT5 / RFU, WDR92 / Fold change vs veh, WDR92 / RFU, CUX1 / Fold change vs veh, CUX1 / RFU, TTC7A / Fold change vs veh, TTC7A / RFU, TMEM135 / Fold change vs veh, TMEM135 / RFU, DEPTOR / Fold change vs veh, DEPTOR / RFU, CPM / Fold change vs veh, CPM / RFU, DNAJB6 / Fold change vs veh, DNAJB6 / RFU, CACNA2D3 / Fold change vs veh, CACNA2D3 / RFU, DTX4 / Fold change vs veh, DTX4 / RFU, TFCP2 / Fold change vs veh, TFCP2 / RFU, GMCL1 /// GMCL1P1 / Fold change vs veh, GMCL1 /// GMCL1P1 / RFU, AEBP2 / Fold change vs veh, AEBP2 / RFU, SNHG1 /// SNORD22 /// SNORD25 /// SNORD26 /// SNORD27 /// SNORD28 /// SNORD29 /// SNORD31 / Fold change vs veh, SNHG1 /// SNORD22 /// SNORD25 /// SNORD26 /// SNORD27 /// SNORD28 /// SNORD29 /// SNORD31 / Fold change (Aza/veh), C12orf56 (ProbeSet 11735607_a_at) / Fold change (ACY-1035/veh), C12orf56 (ProbeSet 11735607_a_at) / Fold change (Aza/veh), FGFR1OP (ProbeSet 11751329_s_at) / Fold change (ACY-1035/veh), FGFR1OP (ProbeSet 11751329_s_at) / Fold change (Aza/veh), VPS36 (ProbeSet 11739960_a_at) / Fold change (ACY-1035/veh), VPS36 (ProbeSet 11739960_a_at) / RFU SYPL1 (11715823_x_at) / Fold change /veh SYPL1 (11715823_x_at) / RFU IGFBP7 (11715501_s_at) / Fold change /veh IGFBP7 (11715501_s_at) / RFU REEP3 (11722064_at) / Fold change /veh REEP3 (11722064_at) / RFU IGLL1 (11728026_x_at) / Fold change /veh IGLL1 (11728026_x_at): dose or concentration left out as unconfirmed
Details: ProbeSet 11732154_at; LIST B

Compound: Nc1ccc(-c2cccs2)cc1NC(=O)c1ccc2c(c1)cc(C1CC1)n2CCN1CCOCC1 [ACY-1035]
- RFU, OGT: 340.88 RFU
